Activity calls are given as the source filed them. Cut-off read from the data, not from the text of the source, for most assays here: actives have a measured EC50 and inactives only a lower limit.
Assays:
[1] = C. albicans growth with fluconazole, confirmation, fluorescence, retest (AID 2467); format: functional, cell-based
[2] = NIH-3T3 fibroblast cytotoxicity, dose response, cytotoxicity control, cell-based, fluorescence, Alamar Blue, secondary assay (AID 2327); format: functional;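 note: NIH-3T3 mouse fibroblasts cultured with fluconazole at 8 µg/mL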
[3] = microbe, parasite or virus in culture; format: functional; details: Mycobacterium tuberculosis
H4 = assay: Luminescence Cell-Based Dose Response HTS to Identify Activators of 5'UTR Stem-Loop Driven Prion Protein mRNA Translation in H4 Neuroglioblastoma Cells. [Related pubchem assays: 1829 (Project Summary), 1814 (Primary HTS)]; format: functional; details: Homo sapiens
[4] = Luminescence Cell-Based Dose Confirmation HTS to Identify Activators of 5'UTR Stem-Loop Driven Alpha-Synuclein mRNA Translation in H4 Neuroglioblastoma Cells. [Related pubchem assays: 1829 (Project Summary), 1814 (Primary HTS)]; format: functional
[5] = Luminescence Cell-Based Dose Response HTS to Identify Activators of Luciferase Translation or Activity in H4 […] Cells. [Related pubchem assays: 1829 (Project Summary), 1814 (Primary HTS)]; format: functional
[6] = target: T1, Zinc finger protein mex-5 (Caenorhabditis elegans, UniProt Q9XUB2); assay: MEX-5/TCR-2 RNA interaction inhibitors, dose response, biochemical, C. elegans, fluorescence polarization (AID 1960)
T1 sequence (Q9XUB2 whole entry): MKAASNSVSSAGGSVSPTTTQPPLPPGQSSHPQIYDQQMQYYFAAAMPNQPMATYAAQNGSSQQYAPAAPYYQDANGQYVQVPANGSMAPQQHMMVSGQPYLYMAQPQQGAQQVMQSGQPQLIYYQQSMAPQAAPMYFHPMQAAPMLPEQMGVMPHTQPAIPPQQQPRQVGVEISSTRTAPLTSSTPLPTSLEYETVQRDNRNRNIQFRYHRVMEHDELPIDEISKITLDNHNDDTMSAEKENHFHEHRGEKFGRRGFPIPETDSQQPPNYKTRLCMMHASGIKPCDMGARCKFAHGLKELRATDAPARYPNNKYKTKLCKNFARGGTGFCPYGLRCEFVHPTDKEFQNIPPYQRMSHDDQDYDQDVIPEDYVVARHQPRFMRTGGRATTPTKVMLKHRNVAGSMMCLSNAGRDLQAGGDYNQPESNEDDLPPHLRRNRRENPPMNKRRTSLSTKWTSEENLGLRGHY

[7] = target: T2, RNA-binding protein pos-1 (Caenorhabditis elegans, UniProt G5EF15); assay: inhibitors of POS-1/mex-3 RNA binding, dose response, biochemical, fluorescence polarization (AID 1964);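 note: purified POS-1 fused to maltose binding protein made in E. coli; potency of compounds blocking POS-1 binding to fluorescent RNA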
T2 sequence (G5EF15 whole entry): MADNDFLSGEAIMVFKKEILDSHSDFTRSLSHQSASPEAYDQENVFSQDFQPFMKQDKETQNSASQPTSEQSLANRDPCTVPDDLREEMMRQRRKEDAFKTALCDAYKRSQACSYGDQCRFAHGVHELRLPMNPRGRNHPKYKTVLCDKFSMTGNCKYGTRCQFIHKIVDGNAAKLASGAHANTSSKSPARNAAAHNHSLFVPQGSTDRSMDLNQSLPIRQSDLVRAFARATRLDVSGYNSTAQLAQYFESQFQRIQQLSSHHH

[8] = HEp-2 cell cytotoxicity, dose response, cytotoxicity control for RSV inhibitor project, HTS (AID 2410); format: functional; details: human respiratory syncytial virus
Streptococcus = assay: Group A Streptococcus viability loss, dose response, counter-screen for streptokinase expression inhibitor project, luminescence, BacTiterGlo (AID 1915); format: functional, organism-based;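 note: potency for reduction of bacterial viability or growth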
Streptokinase A = target: T3, Streptokinase A (Streptococcus pyogenes serotype M1, UniProt P10520); assay: S. pyogenes streptokinase expression inhibitors, potency, dose response, plasminogen activation absorbance, OD405 (AID 1914); format: functional, Streptococcus pyogenes M1 GAS;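 note: secreted streptokinase activity via plasminogen activation per viability signal from cell pellet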
T3 sequence (P10520 whole entry): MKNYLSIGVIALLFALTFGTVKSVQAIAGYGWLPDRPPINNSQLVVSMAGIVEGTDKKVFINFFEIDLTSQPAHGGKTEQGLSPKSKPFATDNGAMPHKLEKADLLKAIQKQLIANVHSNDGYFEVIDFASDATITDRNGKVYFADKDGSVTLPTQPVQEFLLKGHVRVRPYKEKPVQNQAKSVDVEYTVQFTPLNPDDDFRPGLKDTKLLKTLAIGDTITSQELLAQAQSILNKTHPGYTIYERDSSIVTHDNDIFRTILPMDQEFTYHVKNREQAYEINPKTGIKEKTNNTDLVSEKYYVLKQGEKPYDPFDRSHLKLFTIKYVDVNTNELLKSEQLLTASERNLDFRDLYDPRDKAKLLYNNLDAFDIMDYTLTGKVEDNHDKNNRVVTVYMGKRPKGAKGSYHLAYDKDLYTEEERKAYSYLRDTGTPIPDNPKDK

[9] = cytotoxicity toward NIH3T3 fibroblasts, dose response, counter-screen, cell-based, ATP luminescence, mouse fibroblasts (AID 2010); format: functional;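 note: cells exposed to compound for about 90 hours before reading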
[10] = system: Streptococcus sp. 'group A'; assay: growth inhibition of control SK(-) GAS strain, dose response, counter-screen for streptokinase expression inhibitor project, luminescence, kanamycin, BacTiterGlo, confirmation (AID 1900); format: functional, organism-based
[11] = inhibitors of intracellular T. cruzi replication, confirmation, NIH3T3 host cells, beta-gal luminescence (AID 2044); format: functional, cell-based;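 note: intracellular parasites grown in NIH/3T3 mouse fibroblasts as host cells; luminescent beta-galactosidase reporter signal from transgenic T. cruzi replicating inside host cells; inhibitors lower the luminescence signal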
[12] = growth suppression of PTEN-null colon cells, dose response, cell-based, HCT116 PTEN knockout (AID 1047); format: functional;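 note: HCT116 colon tumor cells with PTEN knocked out; cells exposed to compound for 60 hours before readout; potency for loss of cell viability measured by luminescence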
[13] = growth suppression of beta-catenin-knockout colon cells, dose response, cell-based, HCT116, human colon tumor (AID 1045); format: functional;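 note: HCT116 colon tumor cells with beta catenin knocked out; cells exposed to compound for 60 hours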
[14] = target: T4, Ubiquitin-conjugating enzyme E2 N (Homo sapiens, UniProt P61088); format: functional;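 note: Dose-response confirmation in a TR-FRET assay detecting UBC13-driven polyubiquitin chain formation, inhibition measured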
T4 sequence (P61088 whole entry): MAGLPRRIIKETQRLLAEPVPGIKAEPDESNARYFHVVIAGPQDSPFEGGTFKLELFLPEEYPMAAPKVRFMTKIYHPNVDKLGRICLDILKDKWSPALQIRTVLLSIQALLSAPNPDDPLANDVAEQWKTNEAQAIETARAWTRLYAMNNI

[15] = target: T5, Rac GTPase-activating protein 1 (Homo sapiens, UniProt Q9H0H5); assay: MgcRacGAP GTPase-activating activity inhibitors, confirmation, biochemical, ADP Hunter fluorescence, primary and confirmatory (AID 624330); format: functional
T5 sequence (Q9H0H5 whole entry): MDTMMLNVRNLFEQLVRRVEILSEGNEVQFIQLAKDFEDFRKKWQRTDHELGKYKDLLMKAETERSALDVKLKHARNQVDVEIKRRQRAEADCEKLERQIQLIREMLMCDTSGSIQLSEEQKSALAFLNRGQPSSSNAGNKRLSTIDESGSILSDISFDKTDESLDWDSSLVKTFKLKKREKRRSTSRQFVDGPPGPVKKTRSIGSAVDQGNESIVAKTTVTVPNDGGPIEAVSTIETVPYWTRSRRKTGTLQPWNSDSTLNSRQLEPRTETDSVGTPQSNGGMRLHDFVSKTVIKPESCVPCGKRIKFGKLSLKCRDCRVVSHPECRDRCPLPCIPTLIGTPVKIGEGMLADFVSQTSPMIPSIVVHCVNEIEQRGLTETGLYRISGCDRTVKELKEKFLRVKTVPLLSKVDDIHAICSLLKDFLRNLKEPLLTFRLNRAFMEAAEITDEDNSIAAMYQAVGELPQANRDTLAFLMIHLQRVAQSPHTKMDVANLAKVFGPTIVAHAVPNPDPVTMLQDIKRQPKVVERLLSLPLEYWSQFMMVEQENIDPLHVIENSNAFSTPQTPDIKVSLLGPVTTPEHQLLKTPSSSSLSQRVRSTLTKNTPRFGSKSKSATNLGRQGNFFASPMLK

## CSC(S)=NCc1cccnc1
[1]
  EC50: 1.13 µM (active)
[2]
  EC50: > 160 µM (inactive)
[3]
  CC50: 9.84 µM (active)

## CCC1=NN2C(=N)/C(=C\c3ccc(OCCOc4ccccc4)c(OC)c3)C(=O)N=C2S1
H4
  EC50: 5.43 µM (active)
[4]
  EC50: 9.45 µM (active)
[5]
  EC50: 8.4 µM (active)

## COC(=O)c1ccc(-n2c(CCC(=O)O)ccc2-c2ccccc2)cc1
[6]
  EC50: > 300 µM (not active)
[7]
  EC50: > 300 µM (not active)

## Nc1ncccc1OCc1ccc(Cl)c(Cl)c1
[8]
  CC50: 9.61 µM (active)

## CN1CCN(/N=C/c2ccc(Cl)c(Cl)c2)CC1
H4
  EC50: 2.16 µM (active)
[4]
  EC50: 34.9 µM (active)
[5]
  EC50: 31.7 µM (active)

## CC(C)c1ccc2[nH]c(O)c(N=NC(=O)c3cccc(S(=O)(=O)N4CCCCC4)c3)c2c1
Streptococcus
  EC50: 110 µM (active)
[8]
  CC50: 7.69 µM (active)
Streptokinase A
  EC50: > 150 µM (not active)
[9]
  EC50: > 60 µM (not active)
[10]
  EC50: 4.39 µM (active)
[11]
  EC50: 0.58 µM (active)

## Cc1nn(C(C)C(=O)N2CCOCC2)c(=O)c2nn(-c3ccccc3)c(C)c12 (stereo not drawn)
[6]
  EC50: > 300 µM (not active)
[7]
  EC50: > 300 µM (not active)

## O=C(Cn1c(=O)oc2cc(S(=O)(=O)N3CCCCC3)ccc21)N1CCc2ccccc21
[12]
  EC50: 18.4 µM (active)
[13]
  EC50: 16.9 µM (active)

## O=C1C(/C=N/CCCN2CCCC2=O)=C(O)c2ccccc21
H4
  EC50: 12.9 µM (active)
[4]
  EC50: 14.8 µM (active)
[5]
  EC50: 5.6 µM (active)

## O=C(NCc1ccccn1)C(=O)Nc1nc(C23CC4CC(CC(C4)C2)C3)cs1
Streptococcus
  EC50: 6.91 µM (active)
[10]
  EC50: 1.66 µM (active)
[3]
  CC50: 36 µM (active)

## COCC(=O)O[C@]1(CCN(C)CCCc2nc3ccccc3[nH]2)CCc2cc(F)ccc2[C@@H]1C(C)C
[14]
  IC50: > 20 µM (inactive)
[3]
  CC50: 14.2 µM (active)

## Oc1ccc(Cc2ccc(Cl)cc2)c(O)c1
[15]
  IC50: 69.5 µM (active)

## CC12CCC(c3c(C(=O)Nc4nccs4)nn(-c4ccccc4)c31)C2(C)C (stereo not drawn)
Streptococcus
  EC50: > 150 µM (not active)
Streptokinase A
  EC50: 28.5 µM (active)
[10]
  EC50: 6.56 µM (active)
[12]
  EC50: 38.1 µM (active)
[13]
  EC50: 24.2 µM (active)

## Cc1ccc(-c2nnc(S)n2/N=C/c2c(C)nn(-c3ccccc3)c2C)cc1
[12]
  EC50: 25.8 µM (active)
[13]
  EC50: 26 µM (active)

## CCOc1ccccc1/C=c1\sc2ncnn2c1=O
[15]
  IC50: 48.7 µM (active)

## N#C/C(=C\c1ccc(-c2ccc(Br)cc2)o1)C(=O)NCCc1c[nH]c2ccccc12
[3]
  CC50: > 40 µM (active)

## O=C(CSCC(=O)N1CCOCC1)Nc1nc(-c2ccc3c(c2)OCO3)cs1
H4
  EC50: > 120 µM (not active)
[4]
  EC50: 86.3 µM (active)
[5]
  EC50: 56.1 µM (active)
